Like-named read-outs stand apart in the source and are kept apart here.
Assays:
[1] = target: T1, muscarinic receptors (M1 -site, pirenzepine sensitive site) (Rattus norvegicus, UniProt P08482); experiment: inhibition of ^3 HPRZ (pirenzepine, [N-methyl-^3 H]) binding to rat cerebral cortex membranes; conditions: ^3 HPRZ 1.0 nM, 60 min, 20° C.
T1 construct: from tissue; host or cells: fresh cerebral cortex membranes, male Wistar rat
T1 sequence (P08482 1-460): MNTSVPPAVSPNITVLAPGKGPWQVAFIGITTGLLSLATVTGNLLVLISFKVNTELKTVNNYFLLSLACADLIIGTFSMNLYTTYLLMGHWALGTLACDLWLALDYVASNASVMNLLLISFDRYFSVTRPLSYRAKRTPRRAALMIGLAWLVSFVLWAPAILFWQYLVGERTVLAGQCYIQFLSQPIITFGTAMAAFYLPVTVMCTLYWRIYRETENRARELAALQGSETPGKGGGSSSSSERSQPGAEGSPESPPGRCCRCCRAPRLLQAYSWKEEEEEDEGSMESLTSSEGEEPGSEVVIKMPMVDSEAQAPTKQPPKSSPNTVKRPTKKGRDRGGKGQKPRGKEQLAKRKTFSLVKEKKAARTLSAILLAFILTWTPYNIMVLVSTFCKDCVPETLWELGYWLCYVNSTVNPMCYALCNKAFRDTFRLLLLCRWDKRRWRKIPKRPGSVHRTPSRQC
Description: Furthermore the pharmacological properties of the compounds of the invention can also be illustrated by determining their capability to inhibit ^3 HPRZ (pirenzepine, [N-methyl-^3 H]) binding to rat cerebral cortex membranes.
Pirenzepine binds selectively to subtype of muscarinic receptors. Historically the type is named the M1 -site, whereas pirenzepine sensitive site would be more appropriate.
(§1) All preparations are performed at 0°-4° C. unless otherwise indicated. Fresh cortex (0.1-1 9) from male Wistar rats (150-200 g) is homogenized for 5-10 s in 10 mL 20 mM Hepes pH: 7.4, with an Ultra-Turrax homogenizer. The homogenizer is rinsed with 2×10 mL of buffer and the combined suspension centrifuged for 15 min. at 40,000×g. The pellet is washed three times with buffer. In each step the pellet is homogenized as before in 3×10 mL of buffer and centrifuged for 10 min. at 40,000×g.
The final pellet is homogenized in 20 mM Hepes pH: 7.4 (100 mL per g of original tissue) and used for binding assay. Aliquots of 0.5 mL is added 20 μL of test solution and 25 μL of ^3 HPRZ (1.0 nM, final conc.), mixed and incubated for 60 min. at 20° C. Non-specific binding is determined in triplicate using atropine (1.0 μg/mL, final conc.) as the test substance. After incubation samples are added 5 mL of ice-cold buffer and poured directly onto Whatman GF/C glass fiber filters under suction and immediately washed 2 times with 5 mL of ice-cold buffer. The amount of radioactivity on the filters are determined by conventional liquid scintillation counting. Specific binding is total binding minus non-specific binding.
Test substances are dissolved in 10 mL water, at a concentration of 0.22 mg/mL. 25-75% inhibition of specific binding must be obtained before calculation of IC50.
The test value will be given as IC50 (the concentration (nM) of the test substance which inhibits the specific binding of ^3 HPRZ by 50%). IC50 =(applied test substance concentration) x(Cx /Co -Cx)nM where Co is specific binding in control assays and Cx is the specific binding in the test assay. (The calculations assume normal mass-action kinetics).

[2] = target: muscarinic acetylcholine receptors; experiment: inhibition of specific binding of ^3 H-Oxotremorine-M (^3 H-Oxo); conditions: ^3 H-Oxotremorine 1.0 nM, rat cortex, 30 min, 25° C.
Source text: The pharmacological properties of the compounds of the invention can be illustrated by determining their capability to inhibit the specific binding of ^3 H-Oxotremorine-M (^3 H-Oxo). Birdsdall N. J. M., Hulme E. C., and Burgen A. S. V. (1980). "The Character of Muscarinic Receptors in Different Regions of the Rat Brain". Proc. Roy. Soc. London (Series B) 207,1.
^3 H-Oxo labels muscarinic receptor in the CNS (with a preference for agonist domains of the receptors). Three different sites are labeled by ^3 H-Oxo. […] Using the present experimental conditions only the high and medium affinity sites are determined.
The inhibitory effects of compounds on ^3 H-oxo binding reflects the affinity for muscarinic acetylcholine receptors.
as §1, with “g)” for “9)”, “(150-250” for “(150-200”, “[…]” for “mM”, “10” for “2×10”, “2×10” for “3×10”
The final pellet is homogenized in […] Hepes pH: 7.4 (100 mL per g of original tissue) and used for binding assay. Aliquots of 0.5 mL is added 25 μL of test solution and 25 μL of ^3 H-Oxotremorine (1.0 nM, final concentration) mixed and incubated for 30 min. at 25° C. Non-specific binding is determined in triplicate using arecoline (1 μg/mL, final concentration) as the test substance. After incubation samples are added 5 mL of ice-cold buffer and poured directly onto Whatman GF/C glass fiber filters under suction and immediately washed 2 times with 5 mL of ice-cold buffer. The amount of radioactivity on the filters are determined by conventional liquid scintillation counting. Specific binding is total binding minus non specific binding.
Test substances are dissolved in 10 mL water (if necessary heated on a steam-bath for less than 5 min.) at a concentration of 2.2 mg/mL. 25-75% inhibition of specific binding must be obtained before calculation of IC50. The test value will be given as IC50 (the concentration (nM) of the test substance which inhibits the specific binding of ^3 H-oxo by 50%). IC50 =(applied test substance concentration) x([…])nM where Co is specific binding in control assays and Cx is the specific binding in the test assay. (The calculations assume normal mass-action kinetics).

5-HT1A receptor = conditions: literature; cited from earlier work
dopamine receptors = conditions: literature; cited from earlier work
[3] = target: muscarinic receptor in the CNS; conditions: cited from earlier work
[4] = in vivo; cited from earlier work
M2 -sites = conditions: cited from earlier work
M1 -sites = conditions: cited from earlier work

Structure (SMILES)	IC50 [1] [nM]	further results
CCCCOc1nonc1OC1CN2CCC1CC2 (racemic) [Compound 1]	56	IC50 [2]: 81 nM
Clc1nccnc1OC1CN2CCC1CC2 (racemic) [Compound 2]	253	IC50 [2]: 374 nM
CCCCOc1nccnc1OC1CN2CCC1CC2 (racemic) [Compound 3]	14.5	IC50 [2]: 19.3 nM
CCCOc1nccnc1OC1CN2CCC1CC2 (racemic) [Compound 4]	21	IC50 [2]: 25 nM
CCCCCCOc1nccnc1OC1CN2CCC1CC2 (racemic) [Compound 5]	32	IC50 [2]: 40 nM
CCCCSc1nccnc1OC1CN2CCC1CC2 (racemic) [Compound 6]	0.9	IC50 [2]: 2.5 nM
CCCCCSc1nccnc1OC1CN2CCC1CC2 (racemic) [Compound 7]	6.7	–
c1cnc(OC2CN3CCC2CC3)cn1 (racemic) [Compound 8]	> 1000	–
CCCCCOc1nccnc1OC1CN2CCC1CC2 (racemic) [Compound 9]	30	–
COc1nccnc1OC1CN2CCC1CC2 (racemic) [Compound 10]	223	–
CCOc1nccnc1OC1CN2CCC1CC2 (racemic) [Compound 11]	53	–
CCCCCCSc1nccnc1OC1CN2CCC1CC2 (racemic) [Compound 12]	13	–
CSc1nccnc1OC1CN2CCC1CC2 (racemic) [Compound 13]	42	–
CCSc1nccnc1OC1CN2CCC1CC2 (racemic) [Compound 14]	21	–
CCCSc1nccnc1OC1CN2CCC1CC2 (racemic) [Compound 15]	13	–
CCCCCCCSc1nccnc1OC1CN2CCC1CC2 (racemic) [Compound 16]	23	–
Clc1nccnc1O[C@H]1CN2CCC[C@@H]1C2 (relative stereo) [Compound 19]	108	–
Cc1nccnc1O[C@H]1CN2CCC[C@@H]1C2 (relative stereo) [Compound 20]	246	–
Clc1cncc(O[C@H]2CN3CCC[C@@H]2C3)n1 (relative stereo) [Compound 22]	52	–
CCCCOc1nccnc1O[C@H]1CN2CCC[C@@H]1C2 (relative stereo) [Compound 23]	2.7	–
CCCCSc1nccnc1O[C@H]1CN2CCC[C@@H]1C2 (relative stereo) [Compound 24]	0.54	–
CCCSc1nccnc1O[C@H]1CN2CCC[C@@H]1C2 (relative stereo) [Compound 29]	0.68	–
CCCCCSc1nccnc1O[C@H]1CN2CCC[C@@H]1C2 (relative stereo) [Compound 30]	0.82	–
CC(C)CSc1nccnc1O[C@H]1CN2CCC[C@@H]1C2 (relative stereo) [Compound 31]	1.7	–

Structure (SMILES)	IC50 [1] [nM]	further results
CCSc1nccnc1O[C@H]1CN2CCC[C@@H]1C2 (relative stereo) [Compound 32]	4	–
FC(F)(F)CSc1nccnc1O[C@H]1CN2CCC[C@@H]1C2 (relative stereo) [Compound 33]	0.7	–
C/C=C/CSc1nccnc1O[C@H]1CN2CCC[C@@H]1C2 (relative stereo) [Compound 34]	0.66	–
FC(F)(F)CCCSc1nccnc1O[C@H]1CN2CCC[C@@H]1C2 (relative stereo) [Compound 35]	0.54	–
C=CCSc1nccnc1O[C@H]1CN2CCC[C@@H]1C2 (relative stereo) [Compound 36]	5.8	–
CC(C)CCSc1nccnc1O[C@H]1CN2CCC[C@@H]1C2 (relative stereo) [Compound 37]	0.76	–
FC(F)(F)Oc1ccc(CSc2nccnc2O[C@H]2CN3CCC[C@@H]2C3)cc1 (relative stereo) [Compound 38]	3.3	–
CCCSc1cncc(O[C@H]2CN3CCC[C@@H]2C3)n1 (relative stereo) [Compound 39]	80	–
FC(F)(F)CSc1cncc(O[C@H]2CN3CCC[C@@H]2C3)n1 (relative stereo) [Compound 40]	17	–
COCCSc1nccnc1O[C@H]1CN2CCC[C@@H]1C2 (relative stereo) [Compound 41]	1.6	–
C(=Cc1ccccc1)CSc1nccnc1O[C@H]1CN2CCC[C@@H]1C2 (relative stereo) [Compound 42]	4.8	–
CC(C)=CCCSc1nccnc1O[C@H]1CN2CCC[C@@H]1C2 (relative stereo) [Compound 43]	2.2	–
O=C1CC2(CCCC2)CC(=O)N1CCCCN1CCN(c2ncccn2)CC1 [Buspirone]	–	receptor interaction (5-HT1A receptor): interacts with reasonable potency only at the 5-HT1A and dopamine receptors; receptor interaction (dopamine receptors): interacts with reasonable potency only at the 5-HT1A and dopamine receptors
CCCCSc1nccnc1OCCN(C)C [Compound 17]	4.5	–
CCCCSc1nccnc1OCC[N+](C)(C)C [Compound 18]	5.4	–
c1cnc(O[C@H]2CN3CCC[C@@H]2C3)cn1 [Compound 21]	123	–
CN1[C@@H]2CC[C@H]1C[C@@H](Oc1cnccn1)C2 [Compound 25]	680	–
CN(C)CCOc1cnccn1 [Compound 26]	> 1000	–
C[N+](C)(C)CCOc1cnccn1 [Compound 27]	> 1000	–
CN1CCC[C@H]1COc1cnccn1 [Compound 28]	5710	–
C[N+](C)(C)CC#CCN1CCCC1=O [^3 H-Oxo, ^3 H-Oxotremorine-M]	–	Kd ([3]; first (high affinity) site): 1.8 nM; Kd ([3]; second (medium affinity) site): 20 nM; Kd ([3]; third site, not determined under present conditions, read-out: affinity): 3000 nM
CCCC(C)(COC(N)=O)COC(N)=O [meprobamate]	–	side effects [4]: numerous side effects such as potential for abuse and addiction or potentiation of the effects of ethanol
CN1CCN(CC(=O)N2c3ccccc3C(=O)Nc3cccnc32)CC1 [pirenzepine, pirenzepine, [N-methyl-^3 H]]	–	interaction with M2 -sites (M2 -sites): also interact with M2 -sites; selectivity (M1 -sites): selective for M1 -sites

From patent US5763457A, “Method for treating anxiety” (Eli Lilly and Company, priority 1996, dated 1998)
